Measured values reported in publication PMC11612460, “Development of a novel gut microphysiological system that facilitates assessment of drug absorption kinetics in gut” (Scientific Reports, 2024).

How the values were obtained:
[1] = in vitro; settings: human
Procedure: (§1) The seeding medium and culture medium of hiSIECs for LLI and ALI were obtained from FUJIFILM Corporation. hiSIECs were cultured according to the manufacturer’s instructions. Briefly, Fluid3D-X® devices were coated with Corning Matrigel GFR Basement Membrane Matrix (Corning) on the day before seeding the cells. hiSIECs were seeded onto a Fluid3D-X® device at 5.3 × 10^5 cells/MPS and incubated for 5.5 h. The seeding medium was added to the device, and cell culture was started in flow for 11 days at 20 pps 1/4 (3.8 µL/min). After one day, the seeding medium was replaced with LLI culture medium, and the medium was changed every two or three days. ALI culture was performed using the same method as the LLI culture, but the apical channel medium was removed to expose the cells to air on day 4. On day 11 after seeding, the gut MPS was used for the assay.
(§2) Eight gut chips were divided into two groups: with and without inhibitors. […] Because all steps were performed under static conditions, 200 µL of buffer was transferred from the outlet to the inlet by a micropipette before collection of each sample. Serial sampling (150 µL) was performed at following time points (0, 30, 60, 90, and 120 min) from both the donor and acceptor sides. Equal volumes of fresh buffer were added after the sample collection. At the end of the experiment (120 min), the cell lysates were collected. The concentrations of drugs and/or metabolites in the transport buffer and cells were measured by LC-MS/MS. To observe the inhibitory effects of the inhibitor on compound transport, transport experiments were performed in the presence of an inhibitor cocktail containing ketoconazole (10 µM), PSC833 (5 µM), and Ko143 (5 µM) to inhibit CYP3A4, P-gp, and BCRP.
(§3) The permeability, efflux ratio, and Fg parameters were derived as follows:
(§4) The apparent permeability coefficient (Papp, cm/s) was calculated using Eq. (1):1 [drawing 1]
(§5) where dQ/dt, MPS surface area, and C0 represent the amount of the test compound transported to the receiver compartment per unit time when the linearity of its time-dependent transport was
(§6) apparently maintained, the culture area of the gut MPS/Fluid3D-X (0.64 cm^2), and the
(§7) initial concentration of the test compound in the donor compartment.2 [drawing 2]
(§8) where Papp, basal to apical and Papp, apical to basal represent the apparent permeability coefficient in the
(§9) basolateral-to-apical and apical-to-basolateral directions, respectively.
(§10) The intestinal availability (Fg) of CYP3A substrates was calculated based on a previous report[35] using the following equation:3 [drawing 3]
(§11) where CLapical to basal (+ inhibitor) and CLapical to basal (-inhibitor) represent the transcellular transport clearance in the apical-to-basolateral direction in the presence or absence of the inhibitor, respectively.
(§12) The specimens were deproteinated with 3-times volumes of acetonitrile and centrifuged to obtain supernatants. For quantification of the drug concentration on the donor side, the specimens were further diluted 20 times with acetonitrile. Two microliters of each sample was subjected to LC–MS/MS analysis. An AB SCIEX QTRAP 5500 + mass spectrometer (Applied Biosystems, Foster City, CA) equipped with a Nexera X2 LC system (Shimadzu, Kyoto, Japan), operated in electron spray ionization mode, was used for the analysis. Chromatographic separation was performed at 40 °C on a GL Sciences Inc instrument. InertSustain C18 HP analytical column (2.1 I.D. × 100 mm, 3 μm) at a flow rate of 0.5 ml/min using the gradient method. The mobile phase consisted of 2 mmol/L ammonium acetate and 0.1% formic acid in water (mobile phase A) and 0.1% formic acid in acetonitrile (mobile phase B). […] The ion spray voltage and temperature were set at 4500 V and 600 °C, respectively.

[2] = tested on: hiSIECs monolayers in gut MPS/Fluid3D-X; test: in vitro; settings: for effect of inhibitor cocktail on apical-to-basal transport: ketoconazole 10 µM
Procedure: as §1, §2, §3, §4, §5, §6, §7, §8, §9, §10, §11, §12

[3] = in vivo, human; cited from earlier work
[4] = tested on: hiSIECs; settings: ref 20 (Shirai et al.); cited from earlier work
[5] = tested on: hiSIECs monolayers in gut MPS/Emulate; test: Permeability / donor concentration of test drugs using gut MPS/Emulate (fluidic conditions)
Procedure: F-hiSIEC was thawed and suspended in seeding medium according to the manufacture’s protocol. The suspension of F-hiSIEC (6.0×10^6 cells/mL, 35-40 μL/chip) was transferred to the chip and incubated at 37 °C overnight. The cells were then cultured in maintenance medium under perfusion culture conditions at a flow rate of 15 μL/hr from day1 to day 4 and 30 μL/h from day 5 to day9. Gravity wash and prime cycle were performed when necessary. Additionally, the membrane strain rate was set to 2% at a frequency of 0.15 Hz from day 3 to day 5 and to 10% from day 6 to day 9. The permeability of the test drugs was assessed on day 9.
The test drugs were added to the culture medium. The top and bottom channels of the chip were perfused with the media at a flow rate of 30 μL/h. […] Inhibitors (10μM Ketoconazole, 5μM PSC833 and 5μM Ko143) were added as a cocktail to both the channels. Media were collected from the outlet chamber at 6, 24, 30, and 48 h.

[6] = Papp, apical to basal, inhibitor (+)
[7] = Papp, apical to basal, inhibitor (-)
[8] = Papp, basal to apical, inhibitor (-), no inhibitor, mean ± SD, n = 4, deuterium-labeled compound dosed to basal side, apical pH 6.5, basal pH 7.4
[9] = with ketoconazole 10 µM, PSC833 5 µM, Ko143 5 µM (both sides)

SMILES | Papp at 120 min [1, 6] [×10⁻⁶ cm/s] | Papp at 120 min [1, 7] [×10⁻⁶ cm/s] | effect of inhibitor cocktail on apical-to-basal transport ([2]; PSC833 5 µM, Ko143 5 µM) | efflux ratio at 120 min [1] | Papp at 120 min [1, 8] [×10⁻⁶ cm/s] | Papp at 120 min [1, 9] [×10⁻⁶ cm/s] | efflux ratio at 120 min [1, 9] | further results
Cc1cc(=O)n(-c2ccccc2)n1C [Antipyrine] | 18.5 ± 1.2 | 20.1 ± 2.7 | not affected by the inhibitors | – | – | – | – | efflux ratio at 120 min ([1]; Efflux ratio (ER), inhibitor (+)): 0.78 ± 0.076; efflux ratio at 120 min ([1]; Efflux ratio (ER), inhibitor (-)): 0.656 ± 0.12; Papp at 120 min ([1]; Papp, basal to apical, inhibitor (+)): 14.4 ± 0.7 ×10⁻⁶ cm/s; Papp at 120 min ([1]; Papp, basal to apical, inhibitor (-)): 13.2 ± 1.1 ×10⁻⁶ cm/s
O=C(O)c1cc(/N=N/c2ccc(S(=O)(=O)Nc3ccccn3)cc2)ccc1O [Sulfasalazine] | 0.557 ± 0.095 | 0.505 ± 0.072 | – | 12.7 ± 2.3 | 6.44 ± 0.45 | 1.1 ± 0.29 | 1.97 ± 0.76 | decrease in intrinsic clearance (directional transport) in the presence of transporter inhibitors ([2]; inhibitor cocktail ketoconazole 10 µM, PSC833 5 µM, Ko143 5 µM): 85%
OCc1ncc2n1-c1ccc(Cl)cc1C(c1ccccc1F)=NC2 [1-hydroxymidazolam] | – | – | – | – | – | – | – | secretion of metabolite to apical versus basal channel side ([2]; midazolam dosed apical): preferentially secreted to the apical channel side; formation of metabolite 1-hydroxymidazolam from midazolam in presence of inhibitors ([2]; midazolam dosed apical, inhibitor cocktail): decreased formation
Cc1ncc2n1-c1ccc(Cl)cc1C(c1ccccc1F)=NC2 [Midazolam] | – | – | increased with the addition of inhibitors | – | – | – | – | Papp at 120 min ([1]; Papp, apical to basal, inhibitor (+), inhibitor cocktail ketoconazole 10 µM, PSC833 5 µM, Ko143 5 µM, mean ± SD, n = 3): 14.4 ± 1.9 ×10⁻⁶ cm/s; Papp at 120 min ([1]; Papp, apical to basal, inhibitor (-), no inhibitor, mean ± SD, n = 4, apical pH 6.5, basal pH 7.4): 11.2 ± 0.6 ×10⁻⁶ cm/s; fraction that escaped from the gut metabolism (Fg) ([2]; from ratio of apical-to-basal transport clearance with and without inhibitor): 0.64; Fg, clinical value [3]: 0.55; Fg reported by Shirai et al. [4]: 0.74; donor concentration relative to spiked concentration ([5]; presumably adsorption to the device): almost half of the spiked concentration
C=C[C@H]1C[N@@]2CC[C@H]1C[C@@H]2[C@@H](O)c1ccnc2ccc(OC)cc12 [Quinidine] | 3.88 ± 1.12 | 2.15 ± 0.33 | – | 2.02 ± 0.37 | 4.37 ± 0.15 | 4.37 ± 1.53 | 1.12 ± 0.63 | effluent concentration as percent of the corresponding inlet concentrations ([5]; at 24 h): 82%; reduction of concentration in the effluent relative to original drug solution ([5]; within the first 6 h): 29%
